From PubChem BioAssay (NCI) come the findings set out here.

Among the test systems are SW-620 colon; OVCAR-4 ovarian; NCI/ADR-RES ovarian; IGROV1 ovarian; SF-295 CNS; HCT-15 colon; KM12 colon; SF-268 CNS; COLO 205 colon; EKVX NSCLC; SK-OV-3 ovarian; UO-31 renal; MOLT-4 leukemia; T-47D breast; UACC-62 melanoma; HL-60(TB) leukemia; NCI-H522 lung; NCI-H460 lung; 786-0 renal.
Holding throughout (assay): NCI-60 cell line screen, 48 h

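Method: 48-hour compound exposure of cells in 96-well plates, five concentrations, linear interpolation of endpoints. TGI: total growth inhibition.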 Bounds are passed on as bounds.

Regarding `CC1(CNCc2ccccc2)CC(CCc2ccccc2)N(C(=O)c2ccc([N+](=O)[O-])cc2)C1Cc1ccc(O)cc1` (centres undefined), the TGI in the experiment on SW-620 colon was 86 µM; in the experiment with OVCAR-4 ovarian it was 28.2 µM; in the experiment on NCI/ADR-RES ovarian, 36 µM; with IGROV1 ovarian, 31.2 µM; with SF-295 CNS, 25.6 µM; in the experiment on HCT-15 colon, 26.3 µM. Further, the TGI is 36.2 µM in the experiment on KM12 colon; 27.6 µM in the experiment on SF-268 CNS; 19.4 µM with COLO 205 colon; 31 µM in the experiment with EKVX NSCLC; 34.6 µM in the experiment with SK-OV-3 ovarian; 23.3 µM in the experiment on UO-31 renal. In addition, the TGI was greater than 100 µM with MOLT-4 leukemia; 18.8 µM in the experiment with T-47D breast; 28.9 µM in the experiment on UACC-62 melanoma; 54.4 µM in the experiment on HL-60(TB) leukemia; 22.3 µM with NCI-H522 lung; 30.8 µM in the experiment on NCI-H460 lung. The compound also displayed a TGI in the experiment with 786-0 renal of 25.9 µM.
Consider `CC1CC(=O)Nc2nc3ccccc3n21` (centres undefined), for which the TGI in the experiment with SW-620 colon, in the experiment on OVCAR-4 ovarian, in the experiment with NCI/ADR-RES ovarian, in the experiment with IGROV1 ovarian, with SF-295 CNS and in the experiment on HCT-15 colon was greater than 100 µM each time. In addition, the TGI in the experiment on KM12 colon, with SF-268 CNS, in the experiment on COLO 205 colon, with EKVX NSCLC, with SK-OV-3 ovarian and with UO-31 renal was greater than 100 µM in each case. Also, the TGI in the experiment on MOLT-4 leukemia, with T-47D breast, in the experiment on UACC-62 melanoma, with HL-60(TB) leukemia, in the experiment on NCI-H522 lung and in the experiment with NCI-H460 lung was greater than 100 µM throughout. The same compound returned a TGI in the experiment on 786-0 renal greater than 100 µM.
For the compound `Brc1cc2nn(-c3ccccc3)nc2c2nonc12`, the TGI in the experiment with SW-620 colon, in the experiment on OVCAR-4 ovarian, in the experiment on NCI/ADR-RES ovarian, with IGROV1 ovarian, with SF-295 CNS and in the experiment with HCT-15 colon was greater than 100 µM in each case. For the same compound, the TGI in the experiment with KM12 colon, with SF-268 CNS, with COLO 205 colon, in the experiment on EKVX NSCLC, in the experiment on SK-OV-3 ovarian and in the experiment on UO-31 renal was greater than 100 µM throughout. The TGI in the experiment with MOLT-4 leukemia, with T-47D breast, with UACC-62 melanoma, with HL-60(TB) leukemia, in the experiment with NCI-H522 lung and in the experiment on NCI-H460 lung was greater than 100 µM each time. Further, the TGI with 786-0 renal was greater than 100 µM.
Regarding `COCc1nc2c(OC)cc(-c3nc4ccc(N5CCN(C)CC5)cc4[nH]3)c(OC)c2[nH]1`, the TGI was greater than 100 µM in the experiment on SW-620 colon; greater than 100 µM in the experiment on OVCAR-4 ovarian; greater than 100 µM in the experiment with NCI/ADR-RES ovarian; greater than 100 µM in the experiment on IGROV1 ovarian; 47.2 µM with SF-295 CNS; greater than 100 µM in the experiment on HCT-15 colon. In addition, the TGI was greater than 100 µM in the experiment with KM12 colon; greater than 100 µM with SF-268 CNS; 77 µM with COLO 205 colon; greater than 100 µM in the experiment with EKVX NSCLC; greater than 100 µM in the experiment on SK-OV-3 ovarian; greater than 100 µM in the experiment with UO-31 renal. In addition, the TGI in the experiment on MOLT-4 leukemia, in the experiment on T-47D breast, in the experiment with UACC-62 melanoma, with HL-60(TB) leukemia, in the experiment on NCI-H522 lung and in the experiment on NCI-H460 lung was greater than 100 µM throughout. Besides, the TGI with 786-0 renal is greater than 100 µM.
Take `CN(C)S(=O)(=O)Nc1nnc(S(N)(=O)=O)s1`: the TGI in the experiment with SW-620 colon, in the experiment with OVCAR-4 ovarian, with NCI/ADR-RES ovarian, with IGROV1 ovarian, in the experiment on SF-295 CNS and in the experiment on HCT-15 colon was greater than 100 µM in each case. For the same compound, the TGI with KM12 colon, in the experiment on SF-268 CNS, in the experiment with COLO 205 colon, with EKVX NSCLC, with SK-OV-3 ovarian and with UO-31 renal was greater than 100 µM throughout. Moreover, the TGI with MOLT-4 leukemia, with T-47D breast, with UACC-62 melanoma, with HL-60(TB) leukemia, with NCI-H522 lung and in the experiment with NCI-H460 lung was greater than 100 µM in each case. Moreover, the TGI in the experiment on 786-0 renal was greater than 100 µM.
In the case of `C=C1C(=O)O[C@@]23C1CC[C@@H](C)C2CC[C@@]1(C)OC31` (some centres undefined), the TGI in the experiment on SW-620 colon was found to be 37.5 µM; in the experiment on OVCAR-4 ovarian, 25.3 µM; with NCI/ADR-RES ovarian, 48.4 µM; in the experiment on IGROV1 ovarian, 32.3 µM; in the experiment on SF-295 CNS it was 48.9 µM; with HCT-15 colon, 30.3 µM. Moreover, the TGI in the experiment with KM12 colon was 45.7 µM; in the experiment with SF-268 CNS it was 34.3 µM; in the experiment on COLO 205 colon it was 3.68 µM; in the experiment on EKVX NSCLC, 30.5 µM; in the experiment with SK-OV-3 ovarian, 47.6 µM; in the experiment with UO-31 renal it was 18.5 µM. The TGI in the experiment on MOLT-4 leukemia is 31.8 µM; in the experiment with T-47D breast, 19.2 µM; in the experiment on UACC-62 melanoma, 27.1 µM; in the experiment with HL-60(TB) leukemia, 10.6 µM; with NCI-H522 lung, 20.2 µM; in the experiment with NCI-H460 lung, 35.2 µM. In the experiment on 786-0 renal, this compound came in with a TGI of 26.6 µM.
